Measured values as given in patent US20240417372A1, “ESTERS OF A RETINOID AND BAKUCHIOL AND PREPARATIONS THEREOF” (Conagen Inc., priority 2021, published 2024).

Experiments:
Format in all cases: cell-based
Details in all cases: for Fold Activation: RLU vs DMSO, 23 hours
[1] = test system: RAR gamma; test: RAR gamma Gal4-hybrid luciferase reporter cell agonist assay
Method: (§1) Reporter Cells (Indigo Biosciences, catalog #IB02201, IB02101, IB00821) used in the assays express a receptor hybrid in which the native N-terminal DNA binding domain (DBD) has been replaced with that of the yeast Gal4 DBD. The reporter gene, firefly luciferase, is functionally linked to the Gal4 upstream activation sequence (UAS). Receptor assays were performed as described in Steps 1 to 3 below.
(§2) Step 1: A suspension of Reporter Cells was prepared in Cell Recovery Medium (CRM: containing charcoal-stripped FBS) and 100 μl of the Reporter Cell suspension was dispensed into wells of a white 96-well assay plate.
(§3) Step 2: Test and reference compound master stocks were prepared as solutions at 1,000× concentration’ in DMSO relative to the final treatment concentration. This intermediate stock was subsequently diluted directly into INDIGO Biosciences's Compound Screening Medium (CSM; containing charcoal-stripped FBS) to generate ‘2×-concentration’ treatment media. 100 μL of each prepared treatment medium was dispensed into duplicate assay wells pre-dispensed with a 100 μL suspension of Reporter Cells, thereby achieving the desired final treatment concentrations. The concentration of residual DMSO in all assay wells was 0.1% for the test and reference compounds. Assay plates were incubated at 37° C., 5% CO2 and ˜70% humidity for 23 hours. DMSO control was used to determine background activity. Retinoic acid was used with its EC100 concentration to show 100% activity of each receptor. Retinol was used as positive control.
(§4) Step 3: Following the incubation period, treatment media were discarded and 100 μL/well of Luciferase Detection Reagent was added per well to determine receptor activity in terms of relative luminescence units (RLUs). Data processing: fold activation: [Ave RLU Test Cmpd/Ave RLU DMSO].

[2] = target: T1, RAR alpha (Homo sapiens, UniProt P10276); test: RAR alpha Gal4-hybrid luciferase reporter cell agonist assay
T1 sequence (P10276 183-417 limits assumed): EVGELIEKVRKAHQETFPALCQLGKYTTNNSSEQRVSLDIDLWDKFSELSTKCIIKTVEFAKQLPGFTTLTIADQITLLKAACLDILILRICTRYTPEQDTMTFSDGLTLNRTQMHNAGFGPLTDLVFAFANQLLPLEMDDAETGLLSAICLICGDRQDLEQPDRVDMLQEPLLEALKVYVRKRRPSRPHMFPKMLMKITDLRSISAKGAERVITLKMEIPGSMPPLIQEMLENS
Method: as §1, §2, §3, §4

[3] = target: T2, RAR beta (Homo sapiens, UniProt P10826); test: RAR beta Gal4-hybrid luciferase reporter cell agonist assay
T2 sequence (P10826 183-417 limits assumed): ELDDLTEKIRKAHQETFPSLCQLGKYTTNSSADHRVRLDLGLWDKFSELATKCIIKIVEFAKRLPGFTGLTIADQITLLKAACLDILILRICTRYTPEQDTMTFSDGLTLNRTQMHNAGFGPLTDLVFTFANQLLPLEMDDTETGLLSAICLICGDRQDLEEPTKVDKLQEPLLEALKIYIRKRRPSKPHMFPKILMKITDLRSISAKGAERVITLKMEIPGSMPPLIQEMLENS
Method: as §1, §2, §3, §4

Row | Fold Activation ([2]; RAR alpha, 0.1 μM) | Fold Activation ([2]; RAR alpha, 1 μM) | activity compared with retinol (in words) ([2]; RAR alpha, at 0.1 μm and 0.01 μm) | agonist activity towards RAR alpha (in words) ([2]; summary of Table 1) | Fold Activation ([3]; RAR beta, 0.1 μM) | Fold Activation ([3]; RAR beta, 1 μM) | activity compared with retinol (in words) ([3]; RAR beta, at 0.1 μm and 0.01 μm) | agonist activity towards RAR beta (in words) ([3]; summary of Table 1) | SMILES | Fold Activation ([1]; RAR gamma, 0.1 μM) | Fold Activation ([1]; RAR gamma, 1 μM) | activity compared with retinol (in words) ([1]; RAR gamma, at 0.1 μm and 0.01 μm) | agonist activity towards RAR gamma (in words) ([1]; summary of Table 1) | Fold Activation ([1]; RAR gamma, 0.1 μM (EC100 concentration of retinoic acid))
1 | 26.0 | 979 | more active than retinol | exhibited agonist activity | 12.6 | 169 | more active than retinol | exhibited agonist activity | C=C[C@](C)(/C=C/c1ccc(OC(=O)/C=C(C)/C=C/C=C(C)/C=C/C2=C(C)CCCC2(C)C)cc1)CCC=C(C)C [Bakuchoyl retinoate of Formula I] | 41.0 | 541 | more active than retinol | exhibited agonist activity | 
2 |  |  |  |  |  |  |  |  | CC1=C(/C=C/C(C)=C/C=C/C(C)=C/C(=O)O)C(C)(C)CCC1 [Retinoic acid, reference compound] |  |  |  |  | 706
3 | 6.35 | 518 |  |  | 4.91 | 127 |  |  | CC1=C(/C=C/C(C)=C/C=C/C(C)=C/CO)C(C)(C)CCC1 [Retinol, reference compound] | 18.5 | 368 |  |  | 
